From PubChem BioAssay (NCI)
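Exposure lasted 48 hours, with cells grown in 96-well plates and compounds tested at five concentrations. TGI is the concentration that stops growth completely.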

Experiments:
Assay in all cases: growth of human tumour cells (NCI), 48 h
OVCAR-8 ovarian = test system: OVCAR-8 ovarian
LOX IMVI melanoma = test system: LOX IMVI melanoma
786-0 renal = test system: 786-0 renal
DU-145 prostate = test system: DU-145 prostate
SR leukemia = test system: SR leukemia
NCI-H522 lung = test system: NCI-H522 lung
HCC-2998 colon = test system: HCC-2998 colon
U251 CNS = test system: U251 CNS
MALME-3M melanoma = test system: MALME-3M melanoma
UO-31 renal = test system: UO-31 renal
RXF 393 renal = test system: RXF 393 renal
IGROV1 ovarian = test system: IGROV1 ovarian
KM12 colon = test system: KM12 colon
SN12C renal = test system: SN12C renal

With `O=C1c2cc3c(cc2CC12Cc1cc4c(cc1C2=O)CCC4)CCCC3` (stereo not given) the TGI (OVCAR-8 ovarian) was over 100 µM, the TGI (LOX IMVI melanoma) was over 100 µM and the TGI (786-0 renal) was over 100 µM. It also gave a TGI (DU-145 prostate) of over 100 µM, a TGI (SR leukemia) of over 100 µM and a TGI (NCI-H522 lung) of over 100 µM. It also gave a TGI (HCC-2998 colon) of over 100 µM, a TGI (U251 CNS) of over 100 µM and a TGI (MALME-3M melanoma) of over 100 µM. It also gave a TGI (UO-31 renal) of over 100 µM, a TGI (RXF 393 renal) of over 100 µM and a TGI (IGROV1 ovarian) of over 100 µM.

`CC(C)=CCS(=O)c1ccccc1NC1=CC(=O)CC(C)(C)C1` (stereo not given) gave a TGI (OVCAR-8 ovarian) of over 100 µM, a TGI (KM12 colon) of over 100 µM and a TGI (SN12C renal) of over 100 µM. For the same compound, the TGI (LOX IMVI melanoma) was over 100 µM, the TGI (786-0 renal) was over 100 µM and the TGI (DU-145 prostate) was over 100 µM. It also gave a TGI (SR leukemia) of over 100 µM, a TGI (NCI-H522 lung) of over 100 µM and a TGI (HCC-2998 colon) of over 100 µM. The TGI (U251 CNS) was 2.42 µM, the TGI (MALME-3M melanoma) was over 100 µM and the TGI (UO-31 renal) was over 100 µM. For the same compound, the TGI (RXF 393 renal) was over 100 µM and the TGI (IGROV1 ovarian) was over 100 µM.

`COc1cccc(OC)c1/C=C1\OC(=O)c2cccc(OC)c21` was tested, and the TGI (OVCAR-8 ovarian) was over 100 µM, the TGI (KM12 colon) was over 100 µM and the TGI (SN12C renal) was over 100 µM. For the same compound, the TGI (LOX IMVI melanoma) was over 100 µM, the TGI (786-0 renal) was over 100 µM and the TGI (DU-145 prostate) was over 100 µM. It also gave a TGI (SR leukemia) of over 24.3 µM, a TGI (NCI-H522 lung) of 12.2 µM and a TGI (HCC-2998 colon) of over 100 µM. It also gave a TGI (U251 CNS) of over 100 µM, a TGI (MALME-3M melanoma) of over 95.5 µM and a TGI (UO-31 renal) of over 100 µM. For the same compound, the TGI (RXF 393 renal) was 65 µM and the TGI (IGROV1 ovarian) was over 100 µM.

Work on `Cc1ccc(S(=O)(=O)C2=Cc3ccc(C(F)(F)F)cc3C2(O)c2cccc(C(F)(F)F)c2)cc1` (stereo not given) yielded a TGI (OVCAR-8 ovarian) of 4.44 µM, a TGI (KM12 colon) of 4.53 µM and a TGI (SN12C renal) of 4.47 µM. It also gave a TGI (LOX IMVI melanoma) of 3.52 µM, a TGI (786-0 renal) of 3.96 µM and a TGI (DU-145 prostate) of 10.3 µM. The TGI (SR leukemia) was 8.14 µM, the TGI (NCI-H522 lung) was 3.84 µM and the TGI (HCC-2998 colon) was 4.63 µM. The TGI (U251 CNS) was 3.6 µM, the TGI (MALME-3M melanoma) was 3.48 µM and the TGI (UO-31 renal) was 6.11 µM. It also gave a TGI (RXF 393 renal) of 6.26 µM and a TGI (IGROV1 ovarian) of 7.03 µM.

Work on `O=C1NC(=O)C(c2c[nH]c3cc(Br)ccc23)=C1c1cn(C(c2ccccc2)(c2ccccc2)c2ccccc2)cn1` yielded a TGI (OVCAR-8 ovarian) of 36.5 µM, a TGI (KM12 colon) of over 100 µM and a TGI (SN12C renal) of 31.8 µM. The TGI (LOX IMVI melanoma) was 33.4 µM, the TGI (786-0 renal) was 23.2 µM and the TGI (DU-145 prostate) was 62.8 µM. For the same compound, the TGI (SR leukemia) was 32.3 µM, the TGI (NCI-H522 lung) was 34 µM and the TGI (HCC-2998 colon) was 26.4 µM. For the same compound, the TGI (U251 CNS) was 24.7 µM, the TGI (MALME-3M melanoma) was 56.8 µM and the TGI (UO-31 renal) was 31.9 µM. It also gave a TGI (RXF 393 renal) of 37.5 µM and a TGI (IGROV1 ovarian) of 28.5 µM.

`N#Cc1c(-c2ccccc2)[nH]c2ccccc2c1=O` was tested, and the TGI (OVCAR-8 ovarian) was over 100 µM, the TGI (KM12 colon) was over 100 µM and the TGI (SN12C renal) was over 100 µM. The TGI (LOX IMVI melanoma) was over 100 µM, the TGI (786-0 renal) was over 100 µM and the TGI (DU-145 prostate) was over 100 µM. For the same compound, the TGI (SR leukemia) was over 100 µM, the TGI (MALME-3M melanoma) was over 100 µM and the TGI (RXF 393 renal) was over 100 µM. For the same compound, the TGI (IGROV1 ovarian) was over 100 µM.

Compound `CCOC(=O)CC1c2ccc(O)cc2OC(=O)C1c1ccc([N+](=O)[O-])cc1` (stereo not given) has a TGI (OVCAR-8 ovarian) of 75.7 µM, a TGI (KM12 colon) of 97.8 µM and a TGI (SN12C renal) of 81.3 µM. It also gave a TGI (LOX IMVI melanoma) of over 100 µM, a TGI (786-0 renal) of over 100 µM and a TGI (DU-145 prostate) of over 100 µM. The TGI (SR leukemia) was 77.5 µM, the TGI (NCI-H522 lung) was 66.5 µM and the TGI (HCC-2998 colon) was 60.6 µM. For the same compound, the TGI (U251 CNS) was over 100 µM, the TGI (MALME-3M melanoma) was 70.3 µM and the TGI (RXF 393 renal) was 64.4 µM. For the same compound, the TGI (IGROV1 ovarian) was 60.5 µM.

In the case of `O=C(O)c1ccc(NNc2cc(=O)[nH]c(=O)[nH]2)cc1`, the TGI (OVCAR-8 ovarian) is reported as over 100 µM, the TGI (KM12 colon) is reported as over 100 µM and the TGI (SN12C renal) is reported as over 100 µM. For the same compound, the TGI (LOX IMVI melanoma) was over 100 µM, the TGI (786-0 renal) was over 100 µM and the TGI (DU-145 prostate) was over 100 µM. It also gave a TGI (SR leukemia) of over 100 µM, a TGI (HCC-2998 colon) of over 100 µM and a TGI (U251 CNS) of over 100 µM. The TGI (MALME-3M melanoma) was over 100 µM, the TGI (UO-31 renal) was over 100 µM and the TGI (RXF 393 renal) was over 100 µM. For the same compound, the TGI (IGROV1 ovarian) was over 100 µM.

Work on `CC1=C(C(N)=O)C(c2ccncc2)C(C#N)=C2SCC(=O)N12` (stereo not given) yielded a TGI (OVCAR-8 ovarian) of over 100 µM, a TGI (KM12 colon) of over 100 µM and a TGI (SN12C renal) of over 100 µM. It also gave a TGI (786-0 renal) of over 100 µM, a TGI (DU-145 prostate) of over 100 µM and a TGI (SR leukemia) of over 100 µM. The TGI (NCI-H522 lung) was over 100 µM, the TGI (U251 CNS) was over 100 µM and the TGI (MALME-3M melanoma) was over 100 µM. The TGI (UO-31 renal) was over 100 µM, the TGI (RXF 393 renal) was over 100 µM and the TGI (IGROV1 ovarian) was over 100 µM.

Work on `CN(Nc1cc(=O)[nH]c(=O)[nH]1)c1ccccc1` yielded a TGI (OVCAR-8 ovarian) of over 100 µM, a TGI (KM12 colon) of over 100 µM and a TGI (SN12C renal) of over 100 µM. It also gave a TGI (LOX IMVI melanoma) of over 100 µM, a TGI (786-0 renal) of over 100 µM and a TGI (DU-145 prostate) of over 100 µM. It also gave a TGI (SR leukemia) of over 100 µM, a TGI (HCC-2998 colon) of over 100 µM and a TGI (U251 CNS) of over 100 µM. For the same compound, the TGI (MALME-3M melanoma) was over 100 µM, the TGI (UO-31 renal) was over 100 µM and the TGI (RXF 393 renal) was over 100 µM. It also gave a TGI (IGROV1 ovarian) of over 100 µM.

`CCC1OC2C(CC=C(C)C)=C3OC(C)(O)C(C)(CC)C(OC(=O)c4ccccc4)C3=C3OC(=O)C=C1C32` (stereo not given) was tested, and the TGI (OVCAR-8 ovarian) was over 100 µM, the TGI (KM12 colon) was over 100 µM and the TGI (SN12C renal) was 79 µM. For the same compound, the TGI (LOX IMVI melanoma) was 46.2 µM, the TGI (786-0 renal) was over 100 µM and the TGI (DU-145 prostate) was over 100 µM. It also gave a TGI (SR leukemia) of over 100 µM, a TGI (NCI-H522 lung) of 47.6 µM and a TGI (HCC-2998 colon) of 48.4 µM. The TGI (U251 CNS) was over 100 µM, the TGI (MALME-3M melanoma) was over 100 µM and the TGI (UO-31 renal) was over 100 µM. The TGI (IGROV1 ovarian) was over 100 µM.

In the case of `CCC1c2[nH]c3ccccc3c2C[C@H]2C(=O)NC(COC(C)(C)C)C(=O)N12` (stereo not given in full), the TGI (OVCAR-8 ovarian) is reported as over 100 µM, the TGI (KM12 colon) is reported as over 100 µM and the TGI (SN12C renal) is reported as over 100 µM. It also gave a TGI (LOX IMVI melanoma) of over 100 µM, a TGI (786-0 renal) of over 100 µM and a TGI (DU-145 prostate) of over 100 µM. For the same compound, the TGI (SR leukemia) was over 100 µM, the TGI (NCI-H522 lung) was over 100 µM and the TGI (U251 CNS) was over 100 µM. For the same compound, the TGI (MALME-3M melanoma) was 94.7 µM, the TGI (UO-31 renal) was over 100 µM and the TGI (RXF 393 renal) was over 100 µM. The TGI (IGROV1 ovarian) was over 100 µM.
